Results: patent publication US20240327354A1, “GRAM-NEGATIVE BACTERIA EFFLUX PUMP INHIBITORS” (INSTITUT NATIONAL DE LA SANTÉ ET DE LA RECHERCHE MÉDICALE, priority 2021, published 2024)
Counter-ions that a name gives are not always drawn.

Tests used:
E. coli BW25113 = experiment: Assay 1: growth inhibition of E. coli by sub-inhibitory pyridomycin in combination with examples (resazurin reduction); assay type: cell-based, Escherichia coli; conditions: read-out: EC50 on E. coli with 8 μg/mL of pyridomycin, 8 μg/mL pyridomycin, 5 h, 37° C.
Source text: (§1) Escherichia coli BW25113 (CGSC 7636) and its derivatives E. coli ΔtolC (JW5503-1, ΔtolC732::kan, CGSC 11430), E. coli ΔacrA (JW0452-3, ΔacrA748::kan, CGSC 11843) and E. coli ΔacrB (JW0451-2, ΔacrB747::kan, CGSC 8609) were obtained from E. coli Genetic Stock Center (CGSC, New Haven, Connecticut) and originated from the Keio Collection (Baba T et al, Mol Sys Biol, 2006). Klebsiella pneumoniae (LMG 2095/ATCC 13883) and K. pneumoniae (ATCC43816), Pseudomonas aeruginosa (PAO1), Acinetobacter baumannii (LMG 1025, ATCC 17978), were obtained from ATCC or BCCM/LMG Bacteria Collection. All bacteria were grown and tested in cation-adjusted Mueller-Hinton broth (CAMHB; BD Difco) at 37° C. For conservation, log phase bacteria were frozen (−80° C.) in CAMHB supplemented with 15% glycerol.
Briefly, E. coli BW25113 were diluted from frozen or growing stocks to an OD600 of 0.0004-0.001 in CAMHB. […] E. coli BW25113 viability was evaluated using the resazurin reduction assay, and measured by fluorescence (POLARstar Omega, BMG Labtech: Ex: 530 nm Em: 590 nm). EC50 were defined as the compound concentration that prevented 50% of resazurin turnover compared to the non-treated bacteria.

[1] = system: A. baumannii LMG 1025 (ATCC 17978); experiment: Assay 2: growth inhibition of A. baumannii by sub-inhibitory chloramphenicol in combination with examples (resazurin reduction); assay type: cell-based, Acinetobacter baumannii; conditions: read-out: EC90 on A. baumannii with 10 μg/mL of chloramphenicol, 10 μg/mL chloramphenicol, 5 h or 24 h, 37° C.
Source text: as §1
Measurement of Growth Inhibition of A. baumannii Strains by Sub Inhibitory Concentrations of Chloramphenicol in Combination with Examples 1-137
(§2) For the evaluation of the dose dependent activity of examples 1-137, their ability to boost the antibacterial activity of sub-inhibitory concentrations chloramphenicol was determined. Briefly, A. baumannii LMG 1025 (ATCC 17978) were diluted from frozen or growing stocks to an OD600 of 0.001 in CAMHB. The bacterial suspension was then used as such (no-antibiotic control to evaluate EPI activity), or spiked with chloramphenicol at a final concentration of 10 μg/mL. Bacteria were then added to microplates carrying serial dilutions of the compounds examples 1-137, and incubated for (5 h or 24 h, 37° C.). Bacterial viability was evaluated using the resazurin reduction assay, and measured by fluorescence (POLARstar Omega, BMG Labtech: Ex: 530 nm Em: 590 nm). […] were defined as the compound concentration that prevented 90% of resazurin turnover compared to the non-treated bacteria.

[2] = system: A. baumannii LMG 1025 (ATCC 17978); experiment: Assay 3: growth inhibition of A. baumannii by sub-inhibitory novobiocin in combination with examples (resazurin reduction); assay type: cell-based, Acinetobacter baumannii; conditions: 5 μg/mL novobiocin, 5 h or 24 h, 37° C., read-out: EC90 on A. baumannii with 5 μg/mL of novobiocin
Source text: as §1
Measurement of growth Inhibition of A. baumannii strains by sub Inhibitory concentrations of novobiocin In combination with examples 1-137
as §2, with “concentrations novobiocin” for “concentrations chloramphenicol”, “such (no—antibiotic” for “such (no-antibiotic”, “with novobiocin” for “with chloramphenicol”, “of 5” for “of 10”

Compound | EC50 (E. coli BW25113) [µM] | EC90 [1] [µM] | EC90 [2] [µM]
FC(F)(F)c1cnc(N2CCNCC2)c(Br)c1 [Example 17, 1-[3-bromo-5-(trifluoromethyl)-2-pyridyl]piperazine; hydrochloride] | 5 to 100 | 100 to 500 | –
FC(F)(F)c1ccc(N2CCNCC2)c(Cl)c1 [Example 20, 1-[2-chloro-4-(trifluoromethyl)phenyl]piperazine; hydrochloride] | 5 to 100 | 100 to 500 | –
FC(F)(F)c1cc(I)cnc1N1CCNCC1 [Example 21, 1-[5-iodo-3-(trifluoromethyl)-2-pyridyl]piperazine; hydrochloride] | 5 to 100 | 100 to 500 | –
O=C(OCc1ccccc1)c1cnc(N2CCNCC2)c(Cl)c1 [Example 22, benzyl 5-chloro-6-piperazin-1-yl-pyridine-3-carboxylate;hydrochloride] | 5 to 100 | 100 to 500 | –
O=C(OCCCc1ccccc1)c1cnc(N2CCNCC2)c(Cl)c1 [Example 23, 3-phenylpropyl 5-chloro-6-piperazin-1-yl-pyridine-3-carboxylate;hydrochloride] | 100 to 500 | 100 to 500 | –
Cc1ccc(COC(=O)c2cnc(N3CCNCC3)c(Cl)c2)cc1 [Example 24, p-tolylmethyl 5-chloro-6-piperazin-1-yl-pyridine-3-carboxylate;hydrochloride] | 5 to 100 | 100 to 500 | –
O=C(OCc1ccc(Cl)cc1)c1cnc(N2CCNCC2)c(Cl)c1 [Example 25, (4-chlorophenyl)methyl 5-chloro-6-piperazin-1-yl-pyridine-3-carboxylate;hydrochloride] | 5 to 100 | 100 to 500 | –
O=C(OCCc1ccc(Cl)cc1)c1cnc(N2CCNCC2)c(Cl)c1 [Example 26, 2-(4-chlorophenyl)ethyl 5-chloro-6-piperazin-1-yl-pyridine-3-carboxylate;hydrochloride] | 100 to 500 | 100 to 500 | –
O=C(OCCCc1ccc(Cl)cc1)c1cnc(N2CCNCC2)c(Cl)c1 [Example 27, 3-(4-chlorophenyl)propyl 5-chloro-6-piperazin-1-yl-pyridine-3-carboxylate;hydrochloride] | 100 to 500 | 100 to 500 | –
O=C(OCCc1ccccc1)c1cnc(N2CCNCC2)c(Cl)c1 [Example 30, 2-phenylethyl 5-chloro-6-piperazin-1-yl-pyridine-3-carboxylate;hydrochloride] | 5 to 100 | 100 to 500 | –
COc1ccc(COC(=O)c2cnc(N3CCNCC3)c(Cl)c2)cc1 [Example 31, (4-methoxyphenyl)methyl 5-chloro-6-piperazin-1-yl-pyridine-3-carboxylate;hydrochloride] | 5 to 100 | 100 to 500 | –
O=C(NCc1ccc(Cl)cc1)c1cnc(N2CCNCC2)c(Cl)c1 [Example 33, 5-chloro-N-[(4-chlorophenyl)methyl]-6-piperazin-1-yl-pyridine-3-carboxamide;hydrochloride] | 5 to 100 | 100 to 500 | –
Clc1cc2ccccc2nc1N1CCNCC1 [Example 37, 3-chloro-2-piperazin-1-yl-quinoline; hydrochloride] | < 5 | 5 to 100 | –
Cc1cc2ccccc2nc1N1CCNCC1 [Example 38, 3-methyl-2-piperazin-1-yl-quinoline; hydrochloride] | 5 to 100 | 100 to 500 | –
N#Cc1cc2ccccc2nc1N1CCNCC1 [Example 39, 2-piperazin-1-ylquinoline-3-carbonitrile; hydrochloride] | 5 to 100 | 100 to 500 | –
Clc1ccc2nc(Cl)c(N3CCNCC3)cc2c1 [Example 41, 2,6-dichloro-3-piperazin-1-yl-quinoline;hydrochloride] | 5 to 100 | 100 to 500 | –
Cc1ccc2nc(Cl)c(N3CCNCC3)cc2c1 [Example 42, 2-chloro-6-methyl-3-piperazin-1-yl-quinoline;hydrochloride] | 5 to 100 | 100 to 500 | –

Compound | EC50 (E. coli BW25113) [µM] | EC90 [1] [µM] | EC90 [2] [µM]
Brc1cc2ccccc2nc1N1CCNCC1 [Example 43, 3-bromo-2-piperazin-1-yl-quinoline;hydrochloride] | < 5 | 100 to 500 | –
Brc1cnc(N2CCNCC2)c2ccccc12 [Example 44, 4-bromo-1-piperazin-1-yl-isoquinoline;hydrochloride] | 100 to 500 | 5 to 100 | –
Clc1cc2ccccc2nc1N1C2CCC1CNC2 [Example 45, 3-chloro-2-(3,8-diazabicyclo[3.2.1]octan-8-yl)quinoline;hydrochloride] | 100 to 500 | 100 to 500 | –
Clc1nc2ccccc2nc1N1CCNCC1 [Example 46, 2-chloro-3-piperazin-1-yl-quinoxaline;hydrochloride] | < 5 | 100 to 500 | –
Clc1nc2ccccc2nc1N1CC2CCC(C1)N2 [Example 48, 2-chloro-3-(3,8-diazabicyclo[3.2.1]octan-3-yl)quinoxaline;hydrochloride] | 5 to 100 | 100 to 500 | –
C[C@@H]1CN(c2nc3ccccc3nc2Cl)CCN1 [Example 49, hydrochloride] | 5 to 100 | 100 to 500 | –
Ic1cc2ccccc2nc1N1CCNCC1 [Example 52, 3-iodo-2-piperazin-1-yl-quinoline;hydrochloride] | < 5 | 100 to 500 | –
FC(F)(F)c1ccc2nc(N3CCNCC3)c(Br)cc2c1 [Example 53, 3-bromo-2-piperazin-1-yl-6-(trifluoromethyl)quinoline; hydrochloride] | 5 to 100 | 100 to 500 | –
Clc1ccc2nc(N3CCNCC3)c(Br)cc2c1 [Example 54, 3-bromo-6-chloro-2-piperazin-1-yl-quinoline; hydrochloride] | < 5 | 100 to 500 | –
Cc1ccc2nc(N3CCNCC3)c(Br)cc2c1 [Example 55, 3-bromo-6-methyl-2-piperazin-1-yl-quinoline;hydrochloride] | < 5 | 100 to 500 | –
Cc1cccc2cc(Cl)c(N3CCNCC3)nc12 [Example 59, 3-chloro-8-methyl-2-piperazin-1-yl-quinoline;hydrochloride] | < 5 | 100 to 500 | –
COc1nc2ccccc2nc1N1CCNCC1 [Example 82, 2-methoxy-3-piperazin-1-yl-quinoxaline; 2,2,2-trifluoroacetic acid] | 5 to 100 | 100 to 500 | –
Clc1nc2ccccc2nc1N1CC2CC(C1)N2 [Example 83, 2-chloro-3-(3,6-diazabicyclo[3.1.1]heptan-3-yl)quinoxaline; trifluoromethanesulfonic acid] | 100 to 500 | 100 to 500 | –
NCCc1ccccc1C#Cc1cnc(N2CCNCC2)c(Cl)c1 [Example 90, 2-[2-[2-(5-chloro-6-piperazin-1-yl-3-pyridyl)ethynyl]phenyl]ethanamine; 2,2,2-trifluoroacetic acid] | < 5 | – | 5 to 100
Cc1c(Cl)ccc2cc(Cl)c(N3CCNCC3)nc12 [Example 98, 3,7-dichloro-8-methyl-2-piperazin-1-yl-quinoline;hydrochloride] | < 5 | 5 to 100 | –
Clc1cc2cc(-c3ccccc3)ccc2nc1N1CCNCC1 [Example 106, 3-chloro-6-phenyl-2-piperazin-1-yl-quinoline;hydrochloride] | 5 to 100 | 5 to 100 | –
Clc1cc2cc(-c3cccc4c3CNC4)ccc2nc1N1CCNCC1 [Example 134, 3-chloro-6-isoindolin-4-yl-2-piperazin-1-yl-quinoline;dihydrochloride] | < 5 | 5 to 100 | –
